Assays:
[1] = Liver pharmacokinetics and distribution after single oral dose in colitis mice; assay type: in vivo; conditions: male, C57BL/6, mouse, single oral dose 30 mg/kg CQ equivalent, pCQ = total HCQ
Procedure: (§1) Male C57BL/6 mice (6 weeks old, 18-20 g) were obtained from Charles River Laboratories and used for all in vivo studies. All animal experiments were conducted according to the protocol approved by the University of Nebraska Medical Center Institutional Animal Care and Use Committee. C. rodentium was used to induce colitis in mice. Bacterial glycerol stock was streaked onto LB agar plates and the bacterial colonies were grown overnight at 37° C. A single colony was inoculated into 5 ml of 2% LB broth and incubated at 37° C., 280 rpm overnight to obtain a saturated primary culture. On the day of the experiment (Day 0), 2 ml of the primary culture was added into 300 ml of LB broth and the inoculum was placed on a shaker at 37° C. at 280 rpm for 6 hours. Bacterial optical density was measured at 600 nm. Bacteria were diluted with LB broth and delivered to mice (n=15) via oral gavage in a 100 μL volume containing 5×10^8 colony forming units (CFU). Healthy control group (n=5) was orally administered 100 μL of LB broth.
(§2) The pharmacokinetics and biodistribution of single dose pCQ was evaluated in a mouse model of IBD. Colitis was induced as described above and on day 14, mice were given a single dose of HCQ or pCQ in 200 μl of deionized water via oral gavage equivalent to 30 mg/kg HCQ. Blood was collected from the submandibular vein at 0.5, 1, 2, 4, 8, and 24 h post-administration. The animals were sacrificed, and organs harvested at 0.5, 2, 8, and 24 h post-administration and stored at −80° C. until further use. The mice were randomized to selected sampling times so that three blood samples and one terminal tissue collection were obtained from each.
(§3) Blood, tissue and fecal samples were processed by two methods to determine free HCQ and total HCQ. For the first method, HCQ was isolated by a simple extraction from the organs as described in Murry et al., J. Chrom. B., (2018) 1072, 320-327. The second method utilized base hydrolysis to release HCQ covalently bound to pCQ and subsequent HCQ extraction using solid phase extraction (SPE). Tissues and feces were homogenized in water prior to loading to the SPE cartridge. The calibration and quality control samples were separately prepared for HCQ and pCQ by spiking 10 μl of appropriate calibration stock of HCQ and pCQ, in 100 μl of blank biomatrix, and 10 μl of internal standard solution (1.0 μg/ml) added. For the study, 25 μl of blood and 100 μl of tissue homogenate were used. 400 μl of 1 M NaOH, 600 μl water and 100 μl methanol were added and the samples were incubated at 50° C. for 1 h to hydrolyze HCQ from the pCQ. […]
(§4) The pharmacokinetic parameters of HCQ and pCQ in blood and tissues were calculated using non-compartmental analysis with Phoenix WinNonlin 6.3 (Pharsight Corporation). […]

[2] = test system: mice with C. rodentium colitis; experiment: Therapeutic efficacy, colon histology (H&E) in C. rodentium colitis; assay type: in vivo, mouse; conditions: oral gavage every other day, 30 mg/kg HCQ equivalent, vs untreated
Procedure: Male C57BL/6 mice (6 weeks old, 18-20 g) were obtained from Charles River Laboratories and used for all in vivo studies. All animal experiments were conducted according to the protocol approved by the University of Nebraska Medical Center Institutional Animal Care and Use Committee. C. rodentium was used to induce colitis in mice. Bacterial glycerol stock was streaked onto LB agar plates and the bacterial colonies were grown overnight at 37° C. A single colony was inoculated into 5 ml of 2% LB broth and incubated at 37° C., 280 rpm overnight to obtain a saturated primary culture. […] Bacterial optical density was measured at 600 nm. […]
The longitudinally opened colons were rolled into a Swiss roll from distal to proximal end. […] The stained sections were evaluated by a pathologist without the knowledge of the identity of the samples using a light microscope. […] Crypt heights were measured using ImageJ software, with 10 measurements taken in distal colons of each mouse. Only well-oriented and intact crypts were measured. […] CC3 positive cells in the entire colon roll were counted at 20× magnification. Results were expressed as mean CC3 positive cells per entire colon roll. CD68 positive cells were counted in five randomly chosen areas in the colon roll at high power field (HPF). Results were expressed as mean of CD68 positive cells per HPF.

[3] = Blood pharmacokinetics after single oral dose in C. rodentium colitis mice; assay type: in vivo, mouse; conditions: for Cmax: pCQ = total (polymer-bound + hydrolyzed) HCQ
Procedure: as §1, §2
Blood, tissue and fecal samples were processed by two methods to determine free HCQ and total HCQ. For the first method, HCQ was isolated by a simple extraction from the organs as described in Murry et al., J. Chrom. B., (2018) 1072, 320-327. The second method utilized base hydrolysis to release HCQ covalently bound to pCQ and subsequent HCQ extraction using solid phase extraction (SPE). Tissues and feces were homogenized in water prior to loading to the SPE cartridge. The calibration and quality control samples were separately prepared for HCQ and pCQ by spiking 10 μl of appropriate calibration stock of HCQ and pCQ, in 100 μl of blank biomatrix, and 10 μl of internal standard solution (1.0 μg/ml) added. For the study, 25 μl of blood and 100 μl of tissue homogenate were used. 400 μl of 1 M NaOH, 600 μl water and 100 μl methanol were added and the samples were incubated at 50° C. for 1 h to hydrolyze HCQ from the pCQ. Subsequently, 400 μ12% formic acid was added and the samples were vortexed for 30 s and centrifuged at 1301×g for 10 min. The SPE was carried out using Oasis HLB 3cc, 60 mg extraction Cartridge (Waters, Inc). Cartridges were pre-conditioned with 1 ml acetonitrile followed by 1 ml water. Samples were loaded to the cartridges and washed with 2 ml of aqueous 15% methanol and dried at high vacuum for 15 min. Analytes were eluted with 2 ml of acetonitrile. The eluents were collected in glass tubes and dried under nitrogen in water bath at 50° C. The dry residues were reconstituted in 400 μ1 0.1% formic acid:methanol mixture (60:40) and centrifuged at 13000×g and 10 μl supernatant was injected into the HPLC. The LC-MS/MS conditions were as previously described. (Murry et al., J. Chrom. B., (2018) 1072, 320-327.) The assay was linear over the range of 1 to 2000 ng/mL.
The pharmacokinetic parameters of HCQ and pCQ in blood and tissues were calculated using non-compartmental analysis with Phoenix WinNonlin 6.3 (Pharsight Corporation). The maximum concentration (Cmax) and time to Cmax (Tmax) were obtained from the visual inspection of the concentration-time plot. […]

[4] = Colon pharmacokinetics and distribution after single oral dose in colitis mice; assay type: in vivo; conditions: male, C57BL/6, mouse, single oral dose 30 mg/kg CQ equivalent, pCQ = total HCQ
Procedure: as §1, §2, §3, §4

IL-6 = experiment: Colon cytokine mRNA by RT-PCR, IL-6; assay type: in vivo, mouse; conditions: seven oral doses over 14 days; vs untreated
Procedure: (§5) Colitis was induced as stated above and mice were randomly assigned to healthy, HCQ, and pCQ treatment groups (n=5) and untreated group (n=8). Starting day 1, the mice received oral gavage of either HCQ or pCQ every other day (30 mg/kg HCQ equivalent in 200 μl sterile deionized water). Untreated and healthy controls were administered 200 μl sterile deionized water. On day 14, the mice were sacrificed and the colons were harvested. The colon was opened longitudinally, cleaned of fecal matter, and excised into two parts along the length, which were stored accordingly for determination of cytokine mRNA levels by RT-PCR and histological analysis.
(§6) Colon samples from the therapeutic study were stored in RNAlater™ (Thermo Fisher Scientific Inc.) at 4° C. for 48 hours to allow sufficient time for tissue penetration followed by removal of excess solution. The tissues were then stored at −80° C. until further processing. […] The extracted mRNA was quantified using Nanodrop Onec UV-Vis spectrophotometer (Thermo Fisher Scientific Inc.). […] A volume corresponding to 1 μg of RNA as determined by UV spectrometer was used for cDNA synthesis. […] Results obtained from the RT-PCR were analyzed by Ct method to determine the fold change in gene expression.

CD68 positive cells = experiment: Macrophage infiltration in the colon (CD68 staining); assay type: in vivo, mouse; conditions: oral gavage every other day, 30 mg/kg HCQ equivalent, day 14; vs untreated
Procedure: as §5

IL-2 = experiment: Colon cytokine mRNA by RT-PCR, IL-2; assay type: in vivo, mouse; conditions: seven oral doses over 14 days; vs untreated
Procedure: as §5, §6

[5] = male, C57BL/6, mouse, whole blood, blood, single oral dose 30 mg/kg HCQ equivalent, colitis mice, pCQ = total HCQ

AUC(0-inf) [1]: 176 µg·h/mL | AUC(0-t) [1]: 168 µg·h/mL | Cmax [1]: 12800 ng/mL | Tmax [1]: 2 h | Cmax ([3]; blood, single oral dose 30 mg/kg HCQ equivalent, colitis mice, 30 mg/kg): 2,343 ± 46 ng/ml | AUC0-∞ ([3]; blood, single oral dose 30 mg/kg HCQ equivalent, colitis mice, pCQ = total HCQ, 30 mg/kg): 28,182 ± 1476^ h × ng/ml | bioavailability ([3]; male, C57BL/6, mouse, whole blood, 30 mg/kg, oral vs i.v., read-out: absolute bioavailability (oral to i.v.)): 80% | Cmax ([3]; male, C57BL/6, mouse, whole blood, po, 30 mg/kg, blood, single oral dose 30 mg/kg HCQ equivalent, colitis mice, read-out: Cmax): 2340 ng/mL | AUC(0-inf) ([3]; male, C57BL/6, mouse, whole blood, po, 30 mg/kg, blood, single oral dose 30 mg/kg HCQ equivalent, colitis mice, pCQ = total HCQ): 28.2 µg·h/mL | AUC(0-t) [3, 5]: 26.4 µg·h/mL | CL/F [3, 5]: 18.3 mL/min/kg | MRT [3, 5]: 6.8 ± 0.6 h | Tmax [3, 5]: 3.3 ± 1.2 h | half-life [3, 5]: 5.6 ± 1.9 h | AUC(0-inf) [4]: 209 µg·h/mL | AUC(0-t) [4]: 166 µg·h/mL | Cmax [4]: 10300 ng/mL | Tmax [4]: 8 h
SMILES: CCN(CCO)CCCC(C)Nc1ccnc2cc(Cl)ccc12 (centres unmarked) [HCQ, Hydroxychloroquine]
colon crypt length ([2]; day 14): significantly reduced | colon inflammation and epithelial injury (H&E) ([2]; sacrifice day 14): reduced the colon inflammation and eased the epithelial injury | colon IL-6 expression (mRNA) (IL-6): statistically significant reduction | macrophage infiltration (CD68 positive cells per HPF) (CD68 positive cells): statistically significant reduction | colon IL-2 expression (mRNA) (IL-2): upregulated

— US20210161825A1, “CHLOROQUINE-BASED MATERIALS FOR THE TREATMENT OF DISEASES” (BOARD OF REGENTS OF THE UNIVERSITY OF NEBRASKA, priority 2018, published 2021)
